Test results published in paper PMC6270160, “Bioactive Phenylpropanoid Glycosides from Tabebuia avellanedae” (Molecules, 2013).

What was measured:
[1] = DPPH free radical scavenging (antioxidant) assay; conditions: DPPH in MeOH, 30 min at room temperature in the dark, absorbance at 517 nm, triplicate; read-out: IC50 ± SD, scavenging activity on DPPH free radicals
Procedure: Test samples (100 µL) at different concentrations in MeOH and DPPH (200 µL, […]) in MeOH were added to 96-well microtiter plates. The plate was shaken for 1 min by a plate shaker, and incubated for 30 min at room temperature in the dark. After incubation, the absorbance was recorded at 517 nm. The tested samples at different concentrations without DPPH solution were used as blank control to eliminate the influence of the sample color. Ascorbic acid was used as positive control, and DPPH solution in MeOH served as a negative control. All tests were independently performed in triplicate. DPPH radical scavenging activity (%) = [1 − (AbsS − AbsB)/AbsC] × 100%.

cytochrome CYP3A4 enzyme = biological target: T1, cytochrome CYP3A4 enzyme (Homo sapiens, UniProt P08684); experiment: Inhibitory activity on cytochrome CYP3A4 enzyme (Vivid substrate, P450 BACULOSOMES, fluorescence); format: in vitro ADME; conditions: 20 min pre-incubation, 30 min reaction, fluorescence at 460 nm; read-out: IC50 ± SD, inhibitory activity on CYP3A4 enzyme
T1 construct: purchased
Procedure: Measurement of inhibitory activity on cytochrome CYP3A4 enzyme vivid substrate and fluorescent standards were reconstituted and a standard curve was prepared. 40 µL of test samples at different concentrations diluted in 1% DMSO, positive inhibition control and solvent were added to each 96-well plate, then was added 50 µL of Master pre-mix consisting of P450 BACULOSOMES in vivid CYP 450, Reaction Buffer and Regeneration System (consisting of glucose-6-phosphate and glucose-6-phosphate dehydrogenase), and the plate was mixed and incubated for 20 min to allow samples to interact with the CYP3A4 enzyme. The reaction was started by addition of 10 µL reaction starting liquid including vivid substrate, NADP and Reaction Buffer mixture, and the fluorescence was recorded using a LAS-3000 luminescent image analyzer at a wavelength of 460 nm after 30 min duration of reaction. The inhibition rate was calculated using the equation: % inhibition = [1 − relative fluorescence units (rfu) in the presence of the test sample or positive inhibition control/rfu in the absence of the test compound or positive inhibition control] × 100.

T1 sequence (P08684 whole entry): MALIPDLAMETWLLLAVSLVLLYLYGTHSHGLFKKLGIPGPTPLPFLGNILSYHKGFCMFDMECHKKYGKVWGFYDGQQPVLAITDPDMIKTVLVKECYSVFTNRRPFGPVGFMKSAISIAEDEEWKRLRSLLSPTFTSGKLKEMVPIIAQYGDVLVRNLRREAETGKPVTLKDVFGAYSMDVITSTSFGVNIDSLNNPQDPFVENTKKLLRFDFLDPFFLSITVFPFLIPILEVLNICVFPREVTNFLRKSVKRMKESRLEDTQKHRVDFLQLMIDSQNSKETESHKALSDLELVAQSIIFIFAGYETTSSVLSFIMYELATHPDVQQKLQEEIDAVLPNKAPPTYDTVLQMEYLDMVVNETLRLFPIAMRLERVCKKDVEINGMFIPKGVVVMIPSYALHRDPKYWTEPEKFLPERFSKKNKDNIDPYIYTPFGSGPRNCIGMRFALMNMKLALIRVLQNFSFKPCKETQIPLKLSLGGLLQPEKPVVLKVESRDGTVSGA

Row | Compound | IC50 [1] | IC50 (cytochrome CYP3A4 enzyme)
1 | O=C1O[C@H]([C@@H](O)CO)C(O)=C1O [Ascorbic acid, reference compound] | 3.08 ± 0.06 µM | 
2 | CC1OC(OC2C(O)C(OCCc3ccc(O)c(O)c3)OC(CO)C2OC(=O)C=Cc2ccc(O)c(O)c2)C(O)C(O)C1O (stereo not shown) [Compound 1] | 2.33 ± 0.06 µM | 46.3 ± 1.53 µM
3 | CC1OC(OC2C(O)C(OCCc3ccc(O)c(O)c3)OC(CO)C2OC(=O)C=Cc2ccc(O)c(O)c2)C(O)C(O)C1O [Compound 2, 1′-O-β-(3,4-dihydroxyphenyl)-ethyl-4′-O-caffeoyl-α-L-fucopyranosyl-(l-3′)-D-glucopyranoside] | 1 ± 0.02 µM | 43.3 ± 1.79 µM
4 | CC1OC(OC2C(O)C(OCCc3ccc(O)c(O)c3)OC(CO)C2OC(=O)C=Cc2ccc(O)c(O)c2)C(O)C(O)C1O (stereo not shown) [Compound 3] | 0.66 ± 0.04 µM | 37.7 ± 2.11 µM
5 | CC1OC(OC2C(O)C(COC(=O)C=Cc3ccc(O)c(O)c3)OC(OCCc3ccc(O)c(O)c3)C2O)C(O)C(O)C1O (stereo not shown) [Compound 4] | 1.15 ± 0.04 µM | 91.7 ± 5.44 µM
6 | C[C@@H]1O[C@@H](O[C@H]2[C@@H](O)[C@@H](CO)O[C@@H](OCCc3ccc(O)c(O)c3)[C@@H]2O)[C@H](O)[C@H](O)[C@H]1OC(=O)/C=C/c1ccc(O)c(O)c1 [Compound 5, 1'-O-β-(3,4-dihydroxyphenyl)-ethyl-[4′′-O-caffeoyl-(α-L-rhamnopyranosyl)]-(l-3′)-D-galactopyranoside] | 0.12 ± 0.03 µM | 22.5 ± 1.65 µM
7 | CC1OC(OC2C(O)C(CO)OC(OCCc3ccc(O)c(O)c3)C2O)C(O)C(O)C1OC(=O)C=Cc1ccc(O)c(O)c1 [Compound 6, 1′-O-β-(3,4-dihydroxyphenyl)-ethyl-[4′′-O-caffeoyl-(α-L-fucopyranosyl)]-(l-3′)-D-galactopyranoside] | 0.24 ± 0.01 µM | 15.1 ± 2.43 µM
